Molecules are shown by their SMILES. Several values for one entry are separate records, joined by “and”; a condition that tells them apart may be missing. Identical values can stand only once.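 All cell lines were grown in 96-well plates and treated with compound for 48 hours. At the GI50, growth is halved. TGI is the concentration that stops growth completely.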 Some results are limits rather than exact numbers.

Common to all, as to assay: NCI anticancer screen, dose series, 48 h
The test system of experiment [1] is OVCAR-5 ovarian.
The subject of experiment [2] is SW-620 colon.
Experiment [3] has as its system HL-60(TB) leukemia.
For experiment [4], the system named is SK-MEL-2 melanoma.
For experiment [5], the system named is OVCAR-4 ovarian.
Experiment [6] concerns A549 NSCLC.
For experiment [7], the system named is MDA-MB-231 breast.
In experiment [8] the test system is T-47D breast.

Turning to `C/C(=C\c1ccn(-c2ccc(N)cc2F)n1)[C@@H]1C[C@@H]2O[C@]2(C)CCC[C@H](C)[C@H](O)[C@@H](C)C(=O)C(C)(C)[C@@H](O)CC(=O)O1`, the GI50 was 0.116 µM in experiment [1]; 0.0212 µM in experiment [2]; 0.0174 µM in experiment [3]; 0.0518 µM in experiment [4]; 0.4 µM in experiment [5]; 0.0355 µM in experiment [6]. The GI50 in experiment [7] is 0.132 µM; in experiment [8], 0.0605 µM. Further, the TGI in experiment [1] was over 50 µM; in experiment [2], over 50 µM; in experiment [3] it was 0.859 µM; in experiment [4], over 50 µM; in experiment [5], over 50 µM; in experiment [6] it was over 50 µM. For the same compound, the TGI in experiment [7] and in experiment [8] was over 50 µM in each case.

As for `Cc1ccc(C2=NN(c3ccc(S(N)(=O)=O)cc3)C(c3cn(-c4ccccc4)nc3-c3ccccc3)C2)cc1` (stereo unspecified), the GI50 was 70.4 µM in experiment [1]; 9.82 µM in experiment [2]; 44 µM in experiment [3]; 43.7 µM in experiment [4]; 6.75 µM in experiment [6]; 9.41 µM in experiment [7]. The GI50 in experiment [8] was 9.13 µM. Further, the TGI was over 100 µM in experiment [1]; over 100 µM in experiment [2]; over 100 µM in experiment [3]; over 100 µM in experiment [4]; over 100 µM in experiment [6]; 84.4 µM in experiment [7]. In experiment [8], the TGI is over 100 µM.

For the compound `O=[N+]([O-])c1cc2c(c([N+](=O)[O-])c1)Nc1ccccc1O2`, the GI50 was 14.9 µM in experiment [1]; 10.7 µM in experiment [2]; 7.48 µM in experiment [4]; 5.99 µM in experiment [5]; 5.51 µM in experiment [6]; 6.38 µM in experiment [7]. For the same compound, in experiment [8], the GI50 is 2.79 µM. For the same compound, the TGI in experiment [1] was 62.2 µM; in experiment [2] it was over 100 µM; in experiment [4], 40.3 µM; in experiment [5] it was 68.3 µM; in experiment [6], 60.4 µM; in experiment [7], 30.7 µM. Also, the TGI in experiment [8] turned out to be 10.2 µM.

Consider `CSC1(CC(=O)N2CCCCC2)C(=O)Nc2ccccc21` (stereo unspecified), for which the TGI in experiment [1], in experiment [2], in experiment [4], in experiment [5], in experiment [6] and in experiment [8] was over 100 µM each time.

Turning to `Oc1c(CN2CCN(c3ccccc3F)CC2)cc(Br)c2cccnc12`, the GI50 in experiment [1] was 5.36 µM; in experiment [2], 0.47 µM; in experiment [3] it was 0.392 µM; in experiment [4], 7.65 µM; in experiment [6], 0.546 µM; in experiment [7], 0.902 µM. In experiment [8], the GI50 was 0.565 µM. Moreover, the TGI is 49 µM in experiment [1]; 20.2 µM in experiment [2]; 2.34 µM in experiment [3]; over 51.6 µM in experiment [4]; 13 µM in experiment [6]; 15.2 µM in experiment [7]. This compound yielded a TGI in experiment [8] of 60.5 µM.

Regarding `CC(C)c1ccc2nc3ccc(C(=O)NCCN4CCN(c5ccccc5)CC4)cn3c(=O)c2c1`, the TGI in experiment [1], in experiment [2], in experiment [5], in experiment [6] and in experiment [7] was over 100 µM each time.

As to `Cn1c(=O)c2[nH]c(CCCCc3nc4c([nH]3)c(=O)n(C)c(=S)n4C)nc2n(C)c1=S`, the TGI in experiment [1], in experiment [2], in experiment [4], in experiment [5], in experiment [6] and in experiment [7] was over 100 µM in each case. In experiment [8], this compound displayed a TGI of over 100 µM.

Turning to `CC(=O)[O][Bi]([c]1ccccc1)[c]1ccccc1`, the GI50 in experiment [1] was 11.8 µM; in experiment [2], 2.27 µM; in experiment [3], 3.54 µM; in experiment [5], 13.7 µM; in experiment [6], 25.5 µM; in experiment [7], 14.4 µM. The GI50 in experiment [8] was 5.61 µM. For the same compound, the TGI in experiment [1] worked out at 26.3 µM; in experiment [2] it was 5.45 µM; in experiment [3] it was 23.5 µM; in experiment [5], 27 µM; in experiment [6], 86.7 µM; in experiment [7], 28.4 µM. Also, in experiment [8], the TGI was over 100 µM.

Turning to `C/C=C/C1=CN2C(=O)c3cc(OC4OC(C)C(NC)C(C)(O)C4O)c(C)c(O)c3N=C[C@@H]2C1` (stereo partly specified), the TGI in experiment [1] is 2.92 µM; in experiment [2] it was 10.2 µM; in experiment [3] it was 0.34 µM; in experiment [5], 20.7 µM; in experiment [6], 24.8 µM; in experiment [8] it was 15.3 µM. Further, the GI50 in experiment [2] was 0.0951 µM and < 0.01 µM; in experiment [3], 0.0603 µM.

Turning to `COc1ccc2c(c1)C(=O)c1c-2c(NCCN(C)C)nc2ccccc12`, the GI50 was 4.23 µM in experiment [1]; 3.4 µM in experiment [2]; 15.7 µM in experiment [4]; 12.2 µM in experiment [5]; 0.946 µM in experiment [6]; 6.59 µM in experiment [7]. Further, in experiment [8], the GI50 was 14.8 µM. Also, the TGI in experiment [1] came to 16 µM; in experiment [2], 14 µM; in experiment [4], 31 µM; in experiment [5], 36.3 µM; in experiment [6], 4.49 µM; in experiment [7] it was 19.9 µM. The compound further had a TGI in experiment [8] of 34.6 µM.

On to `O=C(O)c1ccccc1Nc1ccc2nnc(-c3ccncc3)n2n1`, for which the GI50 in experiment [1] was 17.4 µM; in experiment [2], 6.48 µM; in experiment [3], 32.5 µM; in experiment [4] it was 3.15 µM; in experiment [6] it was 13.3 µM; in experiment [7] it was 5.27 µM. Besides, the GI50 in experiment [8] was 4.3 µM. The TGI was 79.3 µM in experiment [1]; 36 µM in experiment [2]; over 100 µM in experiment [3]; 9.08 µM in experiment [4]; 62 µM in experiment [6]; 24.2 µM in experiment [7]. For the same compound, the TGI in experiment [8] was 22.3 µM.

These data come from PubChem BioAssay (NCI).
